Test results taken from patent US20240270679A1, “LIPIDS FOR USE IN LIPID NANOPARTICLE FORMULATIONS” (Acuitas Therapeutics, Inc., priority 2022, published 2024).

Columns and labels:
[1] = Determination of pKa of formulated lipids (TNS fluorescence assay in lipid nanoparticles); assay type: physicochemical; conditions: lipid nanoparticles (compound/DSPC/cholesterol/PEG-lipid), lipid formulated in LNP (cationic lipid/DSPC/cholesterol/PEG-lipid), pH of half-maximal fluorescence
Protocol: As described elsewhere, the pKa of formulated lipids is correlated with the effectiveness of LNPs for delivery of nucleic acids (see Jayaraman et al, Angewandte Chemie, International Edition (2012), 51(34), 8529-8533; Semple et al, Nature Biotechnology 28, 172-176 (2010)). In some embodiments, the preferred range of pKa is ˜5 to ˜7. The pKa of each lipid is determined in lipid nanoparticles using an assay based on fluorescence of 2-(p-toluidino)-6-napthalene sulfonic acid (TNS). Lipid nanoparticles comprising compound of structure (I)/DSPC/cholesterol/PEG-lipid (50/10/38.5/1.5 or 47.5:10:40.7:1.8 mol %) in PBS at a concentration of 0.4 mM total lipid are prepared using the in-line process as described in Example 1. TNS is prepared as a 100 μM stock solution in distilled water. Vesicles are diluted to 24 μM lipid in 2 mL of buffered solutions containing 10 mM HEPES, 10 mM MES, 10 mM ammonium acetate, and 130 mM NaCl, where the pH ranged from 2.5 to 11. An aliquot of the TNS solution is added to give a final concentration of 1 μM and following vortex mixing fluorescence intensity is measured at room temperature in a SLM Aminco Series 2 Luminescence Spectrophotometer using excitation and emission wavelengths of 321 nm and 445 nm. A sigmoidal best fit analysis is applied to the fluorescence data and the pKa is measured as the pH giving rise to half-maximal fluorescence intensity.

human IgG in mouse serum = assay: Immunoglobulin G (IgG) mRNA in vivo evaluation using lipid nanoparticle compositions (human IgG ELISA); design: species or system mice; conditions: tail vein injection, μg IgG/mL serum 24 hours after administration; for Serum IgG @ 0.3 mg/kg: 0.3 mg mRNA/kg; for Serum IgG @ 1.0 mg/kg: 1.0 mg mRNA/kg
Protocol: A lipid of structure (I), DSPC, cholesterol and PEG-lipid are solubilized in ethanol at a molar ratio of 50:10:38.5:1.5 or 47.5:10:40.7:1.8. Lipid nanoparticles (LNP) are prepared at a total lipid to mRNA weight ratio of approximately 10:1 to 40:1. Briefly, the mRNA is diluted to 0.2 mg/mL in 10 to 50 mM citrate buffer, pH 4 or 10 to 25 mM acetate buffer, pH 4. Syringe pumps are used to mix the ethanolic lipid solution with the mRNA aqueous solution at a ratio of about 1:5 to 1:3 (vol/vol) with total flow rates above 15 mL/min. The ethanol is then removed, and the external buffer replaced with PBS by dialysis. Finally, the lipid nanoparticles are filtered through a 0.2 µm pore sterile filter.
Studies are performed in 6-8-week-old CD-1/ICR mice (Envigo) according to guidelines established by an institutional animal care committee (ACC) and the Canadian Council on Animal Care (CCAC). Varying doses of mRNA-lipid nanoparticle are systemically administered by tail vein injection and animals euthanized at a specific time point (e.g., 24 hours) post-administration. The whole blood is collected, and the serum subsequentially separated by centrifuging the tubes of the whole blood at 2000×g for 10 minutes at 4° C. and stored at −80° C. until use for analysis.
For immunoglobulin G (IgG) ELISA (Life Diagnostics Human IgG ELISA kit), the serum samples are diluted at 100 to 15000 folds with 1× diluent solution. 100 μL of diluted serum is dispensed into anti-human IgG coated 96-well plate in duplicate alongside human IgG standards and incubated in a plate shaker at 150 rpm at 25° C. for 45 minutes. The wells are washed 5 times with 1× wash solution using a plate washer (400 μL/well). 100 μL of HRP conjugate is added into each well and incubated in a plate shaker at the same condition above. The wells are washed 5 times again with 1× wash solution using a plate washer (400 μL/well). 100 μL of TMB reagent is added into each well and incubated in a plate shaker at the same condition above. The reaction is stopped by adding 100 μL of Stop solution to each well. The absorbance is read at 450 nm (A450) with a microplate reader. The amount of human IgG in mouse serum is determined by plotting A450 values for the assay standard against human IgG concentration.
Representative compounds of the disclosure shown in Table 2 were formulated using the following molar ratio: 50% cationic lipid/10% distearoylphosphatidylcholine (DSPC)/38.5% Cholesterol/1.5% PEG lipid 2-[2-(ω-methoxy(polyethyleneglycol2000)ethoxy]-N,N-ditetradecylacetamide) or 47.5% cationic lipid/10% DSPC/40.7% Cholesterol/1.8% PEG lipid. Activity was determined by measuring luciferase expression in the liver 4 hours following administration via tail vein injection as described in Example 1 or by measuring the amount of human IgG in mouse serum as described in Example 2. The activity was compared at a dose of 1.0 or 0.5 or 0.3 mg mRNA/kg and expressed as ng luciferase/g liver measured 4 hours after administration, as described in Example 1 or as μg IgG/mL serum measured 24 hours after administration, as described in Example 2. Compound numbers in Table 2 refer to the compound numbers of Table 1.

CCCCCCCCC(CCCCCC)C(=O)OCCCCCCN(CCCCCCOC(=O)C(CCCCCC)CCCCCCCC)CCN(C)CCCC(=O)N(CC)CC (stereo not drawn) [Compound I-52, 6-((2-((3-(N,N-diethylcarbamoyl)propyl)-n-methylamino)ethyl)(6-(1-hexylnonylcarbonyloxy)hexyl)amino)hexyl 2-hexyldecanoate]
pKa [1]: 6.71 | Serum IgG @ 0.3 mg/kg (human IgG in mouse serum): 6.4 ± 2.6 µg/mL | Serum IgG @ 1.0 mg/kg (human IgG in mouse serum): 35.4 ± 11.1 µg/mL

CCCCCCCCC(CCCCCC)COC(=O)CCCCCN(CCCCCC(=O)OCC(CCCCCC)CCCCCCCC)CCCN(C)CCCCC(=O)OC (stereo not drawn) [Compound I-50, Bis(2-hexyldecyl) 6,6′-((3-((5-methoxy-5-oxopentyl)(methyl)amino)propyl)azanediyl)dihexanoate]
pKa [1]: 6.46 | Serum IgG @ 0.3 mg/kg (human IgG in mouse serum): 15.4 ± 2.6 µg/mL | Serum IgG @ 1.0 mg/kg (human IgG in mouse serum): 91.5 ± 19.7 µg/mL

CCCCCCCCC(CCCCCC)COC(=O)CCCCCN(CCCCCC(=O)OCC(CCCCCC)CCCCCCCC)CCCN(C)CCCCC(=O)N(CCCCCC)CCCCCC (stereo not drawn) [Compound I-49, Bis(2-hexyldecyl) 6,6′-((3-((5-(dihexylamino)-5-oxopentyl)(methyl)amino)propyl)azanediyl)dihexanoate]
pKa [1]: 6.34 | Serum IgG @ 0.3 mg/kg (human IgG in mouse serum): 42.4 ± 11.7 µg/mL | Serum IgG @ 1.0 mg/kg (human IgG in mouse serum): 120.6 ± 31.7 µg/mL
